Laboratory results reported in US10935546B2, “Fluorescent AMP-kinase biosensors” (Universite Grenoble Alpes, priority 2015, dated 2021).

Key:
[1] = test system: AMPfret 2.1 in 3T3-L1 or HeLa cells; details: 1 mM AICAR
Description: HeLa cells transfected with AMPFret 2.1 were exposed for 60 min to 1 mM AICAR. […] (b) Time course of the FRET signal. […] (c) AMPK activation at t=0 min and t=60 min. Phosphorylation of the AMPK substrate ACC as determined by immunoblotting (lower panel) and quantification of the resulting P-ACC/total ACC ratio (upper panel). P-ACC/total ACC ratios at t=0 and t=60 min are respectively represented as a white dotted bar and black dotted bar. Data correspond to mean±SEM (n=3).
For cellular ex vivo experiments, subunits of the optimized construct AMPfret 2.1 were cloned in the vectors (pACEMam2, pMDS and pMDK) of the MultiMam expression system. Created plasmids were fused via their Lox-P site to yield to a single mammalian expression vector coding for the sensor AMPFret 2.1 according to well-known techniques to the skilled man in the art.
3T3-L1 and HeLa cells were cultivated in glucose containing DMEM (4.5 g/L) supplemented with SVF, glutamine, penicillin and streptomycin. Once cells reached around 80% confluence, medium was replaced by OptiMEM (Lifetechnologies) and AMPfret 2.1 coding plasmid was transfected using Lipofectamine2000 (Lifetechnologies). After 5 h, OptiMEM was exchanged by complete DMEM and cells grew for >36 h until their observations under the confocal microscope.
LabTek plates were placed in an incubation chamber in which the temperature and O2 concentration were maintained at 37° C. and 21%, respectively. Without moving the Labtek, 200 μL medium was replaced by the same volume of complete medium containing 2 mM AICAR (1 mM final). Excitation wavelength was set to 458 nm and emission spectra showing FRET signal were monitored through A scans from 463 nm to 600 nm every 15 min. ROI (region of interest) were drawn in order to cover entire cells. FRET ratio variations were calculated from those measured emission spectra.
AMPfret 2.1 was excited using a 458 nm laser and emission spectra showing FRET signal were monitored through A scans from 463 nm to 600 nm every 15 min.

AMPfret 2.1 = target: T1, AMPfret 2.1 (UniProt O43741+P80385+Q09137); experiment: FRET assay with purified AMPfret 2.1 sensor (fluorimeter); assay type: binding, rat α2 and γ1, human β2; details: 50 μM A-769662 or 500 μM Metformin, compared with 20 μM AMP (FIG. 6)
T1 construct: decaHis tag with TEV site (N); made in house; host or cells: E. coli BL21 (DE3) Star
Description: The FRET ratio was calculated from fluorescence emission spectra excited at 430 nm. Data points correspond to mean±SEM (n>3).
Structure and names of the molecules are given below the bars.
(§1) FRET assay: FRET signal variation in presence of different compounds (nucleotides, chemicals, ions) was measured using a fluorimeter (Photon Technology International). AMPfret constructs (20 pmol) were incubated in a quartz cuvette in a final volume of 150 μL (spectro buffer: 50 mM Tris pH8, 200 mM NaCl, 5 mM MgCl2, 2 mM β-mercaptoethanol). Effects of nucleotides and others compounds (previously prepared in the spectro buffer) on the FRET ratio given by AMPfret sensor was determined by comparing FRET ratio (peak value at 527 nm/peak value at 476 nm) in presence or absence of the compounds. Excitation wavelength was set to 430 nm, and emission spectra were recorded from 450 to 600 nm with an integration time of 0.2 s. Mg^2+ effect on FRET was investigated in spectro buffer without Mg^2+.

[2] = FRET signal variation of AMPfret constructs upon AMP/ADP binding; details: 3 mM ATP vs 20 μM AMP (FIG. 2)
Text: Top: Schema showing structural organization of the sensors. CFP and YFP are respectively represented as hatched- and dotted-circles. (a) Fluorescence emission spectra of AMPfret constructs excited at 430 nm. […] Data correspond to mean±SEM (AMPfret A: n=7; AMPfret C: n=10).
Second generation of AMPfret constructs 1.1 and 2.1. based on constructs AMPfret C and A, respectively. Top: Schema showing structural organization of the sensors. Both optimized constructs contain mseCFPΔ11/cpVenus as GFP-derived fluorescent couple instead of CFP/YFP. mseCFPΔ11 and cpVenus are respectively represented as hatched- and checkered circles. […] (a) Fluorescence emission spectra of AMPfret constructs excited at 430 nm. […] Data correspond to mean±SEM (AMPfret 1.0: n=10; AMPfret 1.1: n=7); *=p<0.001 (significance assessed by a Student-Newman-Keuls test).
as §1, with “AMPfret constructs (20 pmol) were incubated in a quartz cuvette in a final volume of 150 μL (spectro buffer: 50 mM Tris pH8, 200 mM NaCl, 5 mM MgCl2, 2 mM β-mercaptoethanol).” left out, “Mg^2+ effect on FRET was investigated in spectro buffer without Mg^2+.” left out

T1 sequence (Q09137 1-550): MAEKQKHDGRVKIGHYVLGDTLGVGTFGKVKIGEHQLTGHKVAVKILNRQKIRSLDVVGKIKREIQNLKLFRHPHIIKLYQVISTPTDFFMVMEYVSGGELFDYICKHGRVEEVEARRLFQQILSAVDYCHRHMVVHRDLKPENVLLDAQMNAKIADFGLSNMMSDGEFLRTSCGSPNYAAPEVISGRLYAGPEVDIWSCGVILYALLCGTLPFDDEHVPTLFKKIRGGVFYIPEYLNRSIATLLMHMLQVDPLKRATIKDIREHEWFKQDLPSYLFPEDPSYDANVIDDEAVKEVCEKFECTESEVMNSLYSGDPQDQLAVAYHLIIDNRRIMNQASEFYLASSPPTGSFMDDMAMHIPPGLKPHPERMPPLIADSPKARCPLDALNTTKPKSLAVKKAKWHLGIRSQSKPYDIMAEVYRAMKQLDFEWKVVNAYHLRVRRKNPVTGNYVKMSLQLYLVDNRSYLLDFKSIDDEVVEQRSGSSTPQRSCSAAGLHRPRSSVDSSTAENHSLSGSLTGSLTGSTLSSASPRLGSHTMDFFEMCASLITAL
T1 sequence (O43741 1-269): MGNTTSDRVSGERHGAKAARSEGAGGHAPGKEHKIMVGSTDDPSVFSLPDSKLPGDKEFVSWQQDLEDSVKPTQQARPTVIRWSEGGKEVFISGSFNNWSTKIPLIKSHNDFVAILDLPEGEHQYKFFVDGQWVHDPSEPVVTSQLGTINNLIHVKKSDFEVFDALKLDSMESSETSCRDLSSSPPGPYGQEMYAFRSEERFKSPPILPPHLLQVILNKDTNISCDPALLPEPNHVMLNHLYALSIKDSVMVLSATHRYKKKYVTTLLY
T1 sequence (P80385 whole entry): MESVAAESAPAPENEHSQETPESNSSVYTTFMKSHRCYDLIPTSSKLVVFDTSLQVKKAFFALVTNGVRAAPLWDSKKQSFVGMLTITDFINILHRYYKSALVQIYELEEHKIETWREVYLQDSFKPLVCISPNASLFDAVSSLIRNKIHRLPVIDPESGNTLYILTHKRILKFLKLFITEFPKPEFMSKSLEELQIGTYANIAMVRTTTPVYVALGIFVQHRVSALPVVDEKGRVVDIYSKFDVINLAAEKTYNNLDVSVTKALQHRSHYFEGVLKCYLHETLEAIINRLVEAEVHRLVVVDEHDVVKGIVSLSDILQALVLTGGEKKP

FRET signal induced in AMPfret in vitro (AMPfret 2.1)	difference in FRET signal depending on the presence of AMP or ADP [2] [%]	Compound	further results
		NC(=O)c1ncn([C@@H]2O[C@H](CO)[C@@H](O)[C@H]2O)c1N [AICAR, 5′-Aminoimidazole-4-carboxamide ribonucleoside]	time to maximal effect on FRET signal [1]: about 30 minutes; AMPfret 2.1 FRET signal upon AICAR addition ([1]; 60 min, read every 15 min, HeLa and 3T3-L1 cells): increased with time; FRET response after 15 min of treatment ([1]; 15 min): More than half-maximal response; cpVenus peak (527 nm) in fluorescence emission spectra over time ([1]; HeLa cells transfected with AMPFret 2.1, 0, 15, 30 min): increase of cpVenus peak
did not induce any FRET variation		CN(C)C(=N)N=C(N)N [Metformin]	
induces a FRET signal comparable to AMP		N#Cc1c(O)c2c(-c3ccc(-c4ccccc4O)cc3)csc2[nH]c1=O [A-769662]	
	~10	AMPfret C: AMPK heterotrimer: rat alpha2-CFP (SEQ ID NO:5), human beta2 (SEQ ID NO:9), rat gamma1-YFP (SEQ ID NO:21)	
	~10	AMPfret A: AMPK heterotrimer: rat alpha2-CFP (SEQ ID NO:5), human beta2-YFP (SEQ ID NO:11), rat gamma1 (SEQ ID NO:15)	
